A short description of series [1]: Selectivity index, ratio of IC50 for cytotoxicity against human HDF cells to IC50 for cytotoxicity against human SK-OV-3 cells.
Another series relates to SK-OV-3. As to the kind of experiment: Antiproliferative activity against human SK-OV-3 cells assessed as reduction in cell growth incubated for 72 hrs by SRB assay. Format: functional, cell-based. The conditions noted are these: SK-OV-3, 72 h.
Another series concerns A549. As to the kind of experiment: Antiproliferative activity against human A549 cells assessed as reduction in cell growth incubated for 72 hrs by SRB assay. Format: functional, cell-based. As to conditions: A549, 72 h.
Series [2] in a line: Selectivity index, ratio of IC50 for cytotoxicity against human HDF cells to IC50 for cytotoxicity against human PC-3 cells. Type of series: toxicity, cell-based. The conditions noted are these: HDF cells versus PC-3 cells, read-out: Ratio IC50.
A further series concerns PC-3. Briefly: Antiproliferative activity against human PC-3 cells assessed as reduction in cell growth incubated for 72 hrs by SRB assay. Type of series: functional, cell-based. As to conditions: PC-3, 72 h.
In a further series the test system is U-87 MG. As to the kind of experiment: Antiproliferative activity against human U-87 MG cells assessed as reduction in cell growth incubated for 72 hrs by SRB assay. Type of series: functional, cell-based, U-87MG ATCC.
The nature of series [3]: Selectivity index, ratio of IC50 for cytotoxicity against human HDF cells to IC50 for cytotoxicity against human SK-BR-3 cells. Type of series: toxicity, cell-based. As to conditions: HDF cells versus SK-BR-3 cells, read-out: Ratio IC50.
A further series concerns SK-BR-3. Briefly: Antiproliferative activity against human SK-BR-3 cells assessed as reduction in cell growth incubated for 72 hrs by SRB assay. Type of series: functional, cell-based. The conditions noted are these: SK-BR-3, 72 h.
Series [4] in a line: Cytotoxicity against human HDF cells assessed as reduction in cell growth incubated for 72 hrs by SRB assay. Format: cell-based. The conditions noted are these: HDFa.
Series [5] in a line: Selectivity index, ratio of IC50 for cytotoxicity against human HDF cells to IC50 for cytotoxicity against human U-87 MG cells. Format: toxicity, cell-based. The conditions noted are these: HDF cells versus U-87 MG cells, read-out: Ratio IC50.
Series [6] in a line: Selectivity index, ratio of IC50 for cytotoxicity against human HDF cells to IC50 for cytotoxicity against human A549 cells. Format: toxicity, cell-based. As to conditions: HDF cells versus A549 cells, read-out: Ratio IC50.

Each structure is given as a SMILES string.

This is an account of results in ChEMBL document CHEMBL4765380, “Synthesis, structure and anticancer activity of new geldanamycin amine analogs containing C(17)- or C(20)- flexible and rigid arms as well as closed or open ansa-bridges” (Eur J Med Chem, 2020).

With `CO[C@H]1/C=C\C=C(/C)C(=O)NC2=CC(=O)C(NCCCN3CCCC3)=C(C[C@@H](C)C[C@H](OC)[C@H](O)[C@@H](C)/C=C(\C)[C@@H]1OC(N)=O)C2=O`, the “Ratio IC50” value in series [1] was 2.62. The IC50 is 2820 nM in the series on SK-OV-3; 2610 nM in the series on A549; 2730 nM in the series on PC-3; 2040 nM with U-87 MG; 2060 nM in the series with SK-BR-3; 7.38 µM in series [4]. The selectivity ratio in series [2] turned out to be 2.7; in series [3] it was 3.58; in [5], 3.62; in series [6] it was 2.83.

On to `CO[C@H]1/C=C\C=C(/C)C(=O)NC2=CC(=O)C(NCCCCCCO)=C(C[C@@H](C)C[C@H](OC)[C@H](O)[C@@H](C)/C=C(\C)[C@@H]1OC(N)=O)C2=O`, for which the “Ratio IC50” value in series [1] is 2.74. Also, the IC50 stood at 2190 nM in the series on SK-OV-3; 2770 nM in the series with A549; 2240 nM in the series with PC-3; 2080 nM in the series on U-87 MG; 2070 nM with SK-BR-3; 5.99 µM in series [4]. Moreover, the selectivity ratio was found to be 2.67 in series [2], 2.89 in series [3], 2.88 in series [5] and 2.16 in [6].

As to `CO[C@H]1/C=C\C=C(/C)C(=O)NC2=CC(=O)C(NCc3cccc(CS(=O)(=O)N(C(C)C)C(C)C)c3)=C(C[C@@H](C)C[C@H](OC)[C@H](O)[C@@H](C)/C=C(\C)[C@@H]1OC(N)=O)C2=O`, in [1], the “Ratio IC50” value was 2.62. In addition, the IC50 turned out to be 2050 nM in the series with SK-OV-3; 2970 nM with A549; 2750 nM with PC-3; 2390 nM in the series on U-87 MG; 2480 nM with SK-BR-3; 5.37 µM in series [4]. Also, the selectivity ratio in series [2] came to 1.95; in [3] it was 2.17; in series [5], 2.25; in series [6] it was 1.81.

Regarding `CO[C@H]1/C=C\C=C(/C)C(=O)NC2=CC(=O)C(NCCOCCO)=C(C[C@@H](C)C[C@H](OC)[C@H](O)[C@@H](C)/C=C(\C)[C@@H]1OC(N)=O)C2=O`, the “Ratio IC50” value in series [1] is reported as 1.99. The IC50 in the series on SK-OV-3 is 2510 nM; in the series on A549, 2150 nM; with PC-3, 1960 nM; in the series with U-87 MG, 2660 nM; in the series with SK-BR-3, 2050 nM; in [4] it was 4.99 µM. In addition, the selectivity ratio amounted to 2.55 in series [2], 2.43 in series [3], 1.88 in series [5] and 2.32 in [6].

Turning to `CO[C@H]1/C=C\C=C(/C)C(=O)NC2=CC(=O)C(NNC3=NCCN3)=C(C[C@@H](C)C[C@H](OC)[C@H](O)[C@@H](C)/C=C(\C)[C@@H]1OC(N)=O)C2=O`, the “Ratio IC50” value in series [1] worked out at 1.59. In addition, the half-inhibitory concentration (IC50) was determined as 2470 nM in the series with SK-OV-3; 2710 nM in the series on A549; 3110 nM in the series with PC-3; 2090 nM in the series with U-87 MG; 2090 nM with SK-BR-3; 3.92 µM in series [4]. Further, the selectivity ratio in [2] turned out to be 1.26; in [3], 1.88; in series [5], 1.88; in series [6], 1.45.

For `CO[C@H]1/C=C\C=C(/C)C(=O)NC2=CC(=O)C(NC3CCC(O)CC3)=C(C[C@@H](C)C[C@H](OC)[C@H](O)[C@@H](C)/C=C(\C)[C@@H]1OC(N)=O)C2=O` (stereo partly specified), the “Ratio IC50” value in series [1] came out at 2.59. For the same compound, the IC50 in the series on SK-OV-3 was 3160 nM; in the series on A549 it was 3310 nM; with PC-3 it was 3290 nM; with U-87 MG, 3710 nM; in the series on SK-BR-3, 3830 nM; in series [4], 8.19 µM. For the same compound, the selectivity ratio in series [2] stood at 2.49; in series [3], 2.14; in series [5], 2.21; in series [6], 2.47.

As to `CCOC(=O)[C@@H](N)CCCCNC1=C2C[C@@H](C)C[C@H](OC)[C@H](O)[C@@H](C)/C=C(\C)[C@H](OC(N)=O)[C@@H](OC)/C=C\C=C(/C)C(=O)NC(=CC1=O)C2=O`, the “Ratio IC50” value in series [1] is 2.93. The 50% inhibitory concentration (IC50) was 1090 nM with SK-OV-3; 1390 nM in the series on A549; 1260 nM in the series with PC-3; 1050 nM with U-87 MG; 1370 nM with SK-BR-3; 3.19 µM in series [4]. The selectivity ratio in series [2] amounted to 2.53; in series [3], 2.33; in series [5] it was 3.04; in [6], 2.29.

In the case of `CO[C@H]1/C=C\C=C(/C)C(=O)NC2=CC(=O)C(NCc3ccccc3F)=C(C[C@@H](C)C[C@H](OC)[C@H](O)[C@@H](C)/C=C(\C)[C@@H]1OC(N)=O)C2=O`, the “Ratio IC50” value in series [1] stood at 1.99. The concentration for half-maximal inhibition (IC50) in the series with SK-OV-3 stood at 1350 nM; in the series with A549, 1130 nM; in the series on PC-3, 1520 nM; in the series with U-87 MG it was 1040 nM; in the series with SK-BR-3, 1840 nM; in [4], 2.69 µM. The selectivity ratio in series [2] was found to be 1.77; in [3], 1.46; in [5], 2.59; in [6], 2.38.

Take `CCCCOCCOCCNC1=C2C[C@@H](C)C[C@H](OC)[C@H](O)[C@@H](C)/C=C(\C)[C@H](OC(N)=O)[C@@H](OC)/C=C\C=C(/C)C(=O)NC(=CC1=O)C2=O`: the “Ratio IC50” value in series [1] is reported as 1.59. The IC50 in the series with SK-OV-3 was determined as 1660 nM; with A549, 1190 nM; in the series on PC-3, 1480 nM; in the series on U-87 MG it was 1220 nM; in the series with SK-BR-3, 1020 nM; in series [4] it was 2.64 µM. In addition, the selectivity ratio in [2] is 1.78; in series [3], 2.59; in series [5], 2.16; in series [6] it was 2.22.

Regarding `CO[C@H]1/C=C\C=C(/C)C(=O)NC2=CC(=O)C(NCc3cccc(N4CCOC4=O)c3)=C(C[C@@H](C)C[C@H](OC)[C@H](O)[C@@H](C)/C=C(\C)[C@@H]1OC(N)=O)C2=O`, the “Ratio IC50” value in series [1] was determined as 3.72. The IC50 in the series on SK-OV-3 came out at 3030 nM; with A549, 3730 nM; in the series with PC-3, 3210 nM; in the series on U-87 MG, 3180 nM; in the series with SK-BR-3, 3390 nM; in [4] it was 11.3 µM. The selectivity ratio in series [2] is 3.51; in series [3] it was 3.13; in series [5], 3.55; in series [6] it was 3.02.

As for `CO[C@H]1/C=C\C=C(/C)C(=O)NC2=CC(=O)C(NCCN3CCCC3=O)=C(C[C@@H](C)C[C@H](OC)[C@H](O)[C@@H](C)/C=C(\C)[C@@H]1OC(N)=O)C2=O`, the “Ratio IC50” value in series [1] was 1.87. The half-maximal inhibitory concentration (IC50) with SK-OV-3 is 1540 nM; with A549, 1600 nM; with PC-3, 1830 nM; in the series on U-87 MG it was 1770 nM; in the series on SK-BR-3, 2050 nM; in [4], 2.88 µM. Further, the selectivity ratio in [2] worked out at 1.57; in series [3], 1.4; in [5], 1.63; in series [6], 1.8.
